In data set [1] the target is T1, LXRβ receptor (Homo sapiens, UniProt P55055).
T1 construct: GST-LBD
T1 sequence (P55055 222-460 limits assumed): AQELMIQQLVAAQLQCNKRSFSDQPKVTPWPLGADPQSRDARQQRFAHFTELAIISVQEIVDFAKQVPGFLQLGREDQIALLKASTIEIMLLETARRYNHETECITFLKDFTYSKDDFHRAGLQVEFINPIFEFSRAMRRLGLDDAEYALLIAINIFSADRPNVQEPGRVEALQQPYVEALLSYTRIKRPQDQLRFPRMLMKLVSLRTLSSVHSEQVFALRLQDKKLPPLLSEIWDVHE
As to the kind of experiment: AlphaScreen nuclear receptor panel, LXRβ. Type of data set: biochemical. The source says: (§1) Ligand binding activity of GA (1) was explored via AlphaScreen technology over a panel of NRs that, along with hPXR (Figure 1A), included major human endocrine and metabolic receptors, such as the retinoid X receptor (RXR), constitutive androstane receptor (CAR), farnesoid X receptor (FXR), vitamin D receptor (VDR), liver X receptor (LXR) forms α and β, and the PPAR isoforms α, δ, and γ (see Figure S1). GA (1) was compared to its analogue δ-tocotrienol (5), the vitamers 3 and 4, their short-chain metabolites (SCMs) α-CEHC (10) and γ-CEHC (11), and the LCMs 2 and 8 (Chart 1). The test was performed in the presence of reference standard agonists for the different NRs.
(§2) The activity of nuclear receptors was determined using AlphaScreen technology, a recruitment coactivator assay previously described.[56]
(§3) (A) The test was carried out at 10 μM compound final concentration. Ligand binding to nuclear receptors was expressed as luminescence units. […] Vehicle was assessed to obtain a measure of background signal (basal evaluation). […] In presence of the ligand, the nuclear receptor LBD undergoes conformational changes, binds to the coactivator and the chemical energy is transferred from donor to acceptor beads in order to produce a signal, i.e. luminescence; in this case the compounds behaves as agonist, changing the conformation of the receptor to recruit the coactivator. […]

For data set [2], the system named is C57BL/6 wild-type male mice. As to the kind of experiment: Acute toxicity in mice after single oral bolus. The settings on record: 100 mg single bolus by oral gavage, 24 h after the treatment.
For data set [3], the system named is RAR. Kind of data set: AlphaScreen nuclear receptor panel, RAR. Type of data set: biochemical, human.
Excerpt: as §1, §2, §3
A general note: Alpha assays give light when donor and acceptor beads are brought close together.

Data set [4] deals with T2, FXR (Homo sapiens, UniProt Q96RI1).
T2 construct: GST-LBD
T2 sequence (Q96RI1 262-486 limits assumed): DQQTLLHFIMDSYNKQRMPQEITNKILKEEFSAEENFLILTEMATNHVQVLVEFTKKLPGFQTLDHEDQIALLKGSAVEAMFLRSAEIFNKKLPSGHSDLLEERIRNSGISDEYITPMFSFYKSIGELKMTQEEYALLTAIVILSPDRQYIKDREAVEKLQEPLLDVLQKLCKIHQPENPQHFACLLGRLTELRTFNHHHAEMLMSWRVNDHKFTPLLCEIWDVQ
As to the kind of experiment: AlphaScreen nuclear receptor panel, FXR. Type of data set: biochemical.
Excerpt: as §1, §2, §3

SMILES strings stand for the structures.

With `C/C(=C\CC/C(C)=C/CC[C@]1(C)CCc2cc(O)cc(C)c2O1)CC/C=C(\C)C(=O)O` [GA (1), (2E,6E,10E)-13-[(2R)-6-hydroxy-2,8-dimethyl-chroman-2-yl]-2,6,10-trimethyltrideca-2,6,10-trienoic acid], in data set [1], the “Agonist activity at LXRβ” value is given as “low activity”. The Mortality in data set [2] is on record as 100%. For the same compound, in data set [3], the “Response on RAR” value is given as “No response”. Besides, in data set [4], the “Response on FXR” value is “No response”.

For the origin of these results see paper PMC7901650, “Garcinoic Acid Is a Natural and Selective Agonist of Pregnane X Receptor” (Journal of Medicinal Chemistry, 2020).
